Key:
Type in all cases: in vivo
[1] = tested on: Echinochloa crus-galli (ECHCG); assay: Glasshouse herbicide test, post-emergence; conditions: POST Application; 500 g/h; evaluated after 13 days
Experimental: (§1) Seeds of a variety of test species are shown in standard soil in pots (Lolium perenne (LOLPE), Amaranthus retoflexus (AMARE), Abutilon theophrasti (ABUTH), Setaria faberi (SETFA), Echinochloa crus-galli (ECHCG), Ipomoea hederacea (IPOHE)). After cultivation for one day (pre-emergence) or after 8 days cultivation (post-emergence) under controlled conditions in a glasshouse (at 24/16° C., day/night; 14 hours light; 65% humidity), the plants are sprayed with an aqueous spray solution derived from the formulation of the technical active ingredient in acetone/water (50:50) solution containing 0.5% Tween 20 (polyoxyethelyene sorbitan monolaurate, CAS RN 9005-64-5). Compounds are applied at 500 g/h. The test plants are then grown in a glasshouse under controlled conditions in a glasshouse (at 24/16° C., day/night; 14 hours light; 65% humidity) and watered twice daily. After 13 days for pre and post-emergence, the test is evaluated for the percentage damage caused to the plant. The biological activities are shown in the following table on a five point scale (5=80-100%; 4=60-79%; 3=40-59%; 2=20-39%; 1=0-19%).

[2] = tested on: Ipomoea hederacea (IPOHE); assay: Glasshouse herbicide test, post-emergence; conditions: POST Application; 500 g/h; evaluated after 13 days
Experimental: as §1

[3] = tested on: Amaranthus retoflexus (AMARE); assay: Glasshouse herbicide test, post-emergence; conditions: POST Application; 500 g/h; evaluated after 13 days
Experimental: as §1

[4] = tested on: Setaria faberi (SETFA); assay: Glasshouse herbicide test, post-emergence; conditions: POST Application; 500 g/h; evaluated after 13 days
Experimental: as §1

[5] = tested on: Abutilon theophrasti (ABUTH); assay: Glasshouse herbicide test, post-emergence; conditions: POST Application; 500 g/h; evaluated after 13 days
Experimental: as §1

[6] = tested on: Echinochloa crus-galli (ECHCG); assay: Glasshouse herbicide test, pre-emergence; conditions: PRE Application; 500 g/h; evaluated after 13 days
Experimental: as §1

[7] = tested on: Ipomoea hederacea (IPOHE); assay: Glasshouse herbicide test, pre-emergence; conditions: PRE Application; 500 g/h; evaluated after 13 days
Experimental: as §1

[8] = tested on: Amaranthus retoflexus (AMARE); assay: Glasshouse herbicide test, pre-emergence; conditions: PRE Application; 500 g/h; evaluated after 13 days
Experimental: as §1

[9] = tested on: Setaria faberi (SETFA); assay: Glasshouse herbicide test, pre-emergence; conditions: PRE Application; 500 g/h; evaluated after 13 days
Experimental: as §1

[10] = tested on: Abutilon theophrasti (ABUTH); assay: Glasshouse herbicide test, pre-emergence; conditions: PRE Application; 500 g/h; evaluated after 13 days
Experimental: as §1

SMILES | percentage damage caused to the plant, five point scale, ECHCG [1] | percentage damage caused to the plant, five point scale, IPOHE [2] | percentage damage caused to the plant, five point scale, AMARE [3] | percentage damage caused to the plant, five point scale, SETFA [4] | percentage damage caused to the plant, five point scale, ABUTH [5] | percentage damage caused to the plant, five point scale, ECHCG [6] | percentage damage caused to the plant, five point scale, IPOHE [7] | percentage damage caused to the plant, five point scale, AMARE [8] | percentage damage caused to the plant, five point scale, SETFA [9] | percentage damage caused to the plant, five point scale, ABUTH [10]
CCON(C)c1c(S(C)(=O)=O)ccc(C(=O)Nc2nnnn2CC)c1Cl [Compound 1.055] | 5 (5=80-100%) | 5 (5=80-100%) | 5 (5=80-100%) | 5 (5=80-100%) | 5 (5=80-100%) | 5 (5=80-100%) | 5 (5=80-100%) | 5 (5=80-100%) | 5 (5=80-100%) | 5 (5=80-100%)
CCCON(C)c1c(S(C)(=O)=O)ccc(C(=O)Nc2nnnn2C)c1Cl [Compound 1.056] | 5 (5=80-100%) | 5 (5=80-100%) | 5 (5=80-100%) | 5 (5=80-100%) | 5 (5=80-100%) | 5 (5=80-100%) | 5 (5=80-100%) | 5 (5=80-100%) | 5 (5=80-100%) | 5 (5=80-100%)
CC(C)ON(C)c1c(S(C)(=O)=O)ccc(C(=O)Nc2nnnn2C)c1Cl [Compound 1.057] | 5 (5=80-100%) | 5 (5=80-100%) | 5 (5=80-100%) | 5 (5=80-100%) | 5 (5=80-100%) | 5 (5=80-100%) | 5 (5=80-100%) | 5 (5=80-100%) | 5 (5=80-100%) | 5 (5=80-100%)
CCS(=O)(=O)c1ccc(C(=O)Nc2nnnn2C)c(Cl)c1N(C)OC [Compound 1.062] | 5 (5=80-100%) | 5 (5=80-100%) | 5 (5=80-100%) | 5 (5=80-100%) | 5 (5=80-100%) | 5 (5=80-100%) | 5 (5=80-100%) | 5 (5=80-100%) | 5 (5=80-100%) | 5 (5=80-100%)
CON(C(=O)C(C)(C)C)c1c(C(F)(F)F)ccc(C(=O)Nc2nnnn2C)c1F [Compound 1.063] | 5 (5=80-100%) | 4 (4=60-79%) | 5 (5=80-100%) | 5 (5=80-100%) | 5 (5=80-100%) | 5 (5=80-100%) | 2 (2=20-39%) | 5 (5=80-100%) | 5 (5=80-100%) | 5 (5=80-100%)
CON(C)c1c(C(F)(F)F)ccc(C(=O)Nc2nnnn2C)c1F [Compound 1.065] | 5 (5=80-100%) | 5 (5=80-100%) | 5 (5=80-100%) | 5 (5=80-100%) | 5 (5=80-100%) | 5 (5=80-100%) | 5 (5=80-100%) | 5 (5=80-100%) | 5 (5=80-100%) | 5 (5=80-100%)
